Assay results from ChEMBL document CHEMBL1121450, “Synthesis and antineoplastic activity of phenyl-substituted benzenesulfonylhydrazones of 2-pyridinecarboxyaldehyde 1-oxide” (1980).

Key:
Assay type in all cases: functional
Mus musculus [1] = species: Mus musculus; assay: Average change in body weight from onset to termination of drug therapy in mice bearing the L1210 Leukemia at 120 mg / kg
Mus musculus [2] = species: Mus musculus; assay: Average change in body weight from onset to termination of drug therapy in mice bearing the P388 Leukemia at 100 mg / kg
Mus musculus [3] = species: Mus musculus; assay: The average survival time (days) of mice bearing the L1210 Leukemia at 120 mg / kg (Mice that survived more than 50 days)
Mus musculus [4] = species: Mus musculus; assay: The average survival time(days) of mice bearing the P388 Leukemia at 100 mg / kg
Mus musculus [5] = species: Mus musculus; assay: Average survival time (treated / control) x100 was calculated in mice bearing the P388 Leukemia at 100 mg / kg (Mice that survived more than 50 days)
Mus musculus [6] = species: Mus musculus; assay: At the 50 day survivors of mice bearing the L1210 Leukemia at 120 mg / kg; design: unit not given here
Mus musculus [7] = species: Mus musculus; assay: At the 50 day survivors of mice bearing the P388 Leukemia at 100 mg / kg (Mice that survived more than 50 days)
Mus musculus [8] = species: Mus musculus; assay: Average survival time (treated / control) x100 was calculated in mice bearing the L1210 Leukemia at 120 mg / kg (Mice that survived more than 50 days)
Mus musculus [9] = species: Mus musculus; assay: Average change in body weight from onset to termination of drug therapy in mice bearing the L1210 Leukemia at 80 mg / kg
Mus musculus [10] = species: Mus musculus; assay: The average survival time (days) of mice bearing the L1210 Leukemia at 80 mg / kg
Mus musculus [11] = species: Mus musculus; assay: Average survival time (treated / control) x100 was calculated in mice bearing the L1210 Leukemia at 80 mg / kg
Mus musculus [12] = species: Mus musculus; assay: Average survival time (treated / control) x100 was calculated in mice bearing the P388 Leukemia at 100 mg / kg
Mus musculus [13] = species: Mus musculus; assay: At the 50 day survivors of mice bearing the L1210 Leukemia at 80 mg / kg
Mus musculus [14] = species: Mus musculus; assay: At the 50 day survivors of mice bearing the P388 Leukemia at 100 mg / kg; design: unit not given here
Mus musculus [15] = species: Mus musculus; assay: The average survival time (days) of mice bearing the L1210 Leukemia at 100 mg / kg
Mus musculus [16] = species: Mus musculus; assay: Average change in body weight from onset to termination of drug therapy in mice bearing the L1210 Leukemia at 100 mg / kg
Mus musculus [17] = species: Mus musculus; assay: Average survival time (treated / control) x100 was calculated in mice bearing the L1210 Leukemia at 100 mg / kg
Mus musculus [18] = species: Mus musculus; assay: At the 50 day survivors of mice bearing the L1210 Leukemia at 100 mg / kg; design: unit not given here
Mus musculus [19] = species: Mus musculus; assay: The average survival time(days) of mice bearing the P388 Leukemia at 100 mg / kg (Mice that survived more than 50 days)
Mus musculus [20] = species: Mus musculus; assay: The average survival time (days) of mice bearing the L1210 Leukemia at 120 mg / kg
Mus musculus [21] = species: Mus musculus; assay: The average survival time(days) of mice bearing the P388 Leukemia at 80 mg / kg
Mus musculus [22] = species: Mus musculus; assay: Average change in body weight from onset to termination of drug therapy in mice bearing the P388 Leukemia at 80 mg / kg
Mus musculus [23] = species: Mus musculus; assay: Average survival time (treated / control) x100 was calculated in mice bearing the P388 Leukemia at 80 mg / kg
Mus musculus [24] = species: Mus musculus; assay: At the 50 day survivors of mice bearing the P388 Leukemia at 80 mg / kg
Mus musculus [25] = species: Mus musculus; assay: Average survival time (treated / control) x100 was calculated in mice bearing the L1210 Leukemia at 120 mg / kg
Mus musculus [26] = species: Mus musculus; assay: Average change in body weight from onset to termination of drug therapy in mice bearing the L1210 Leukemia at 60 mg / kg
Mus musculus [27] = species: Mus musculus; assay: The average survival time (days) of mice bearing the L1210 Leukemia at 60 mg / kg
Mus musculus [28] = species: Mus musculus; assay: Average survival time (treated / control) x100 was calculated in mice bearing the L1210 Leukemia at 60 mg / kg
Mus musculus [29] = species: Mus musculus; assay: At the 50 day survivors of mice bearing the L1210 Leukemia at 60 mg / kg
Mus musculus [30] = species: Mus musculus; assay: The average survival time(days) of mice bearing the P388 Leukemia at 80 mg / kg (Mice that survived more than 50 days)
Mus musculus [31] = species: Mus musculus; assay: Average survival time (treated / control) x100 was calculated in mice bearing the P388 Leukemia at 80 mg / kg (Mice that survived more than 50 days)
Mus musculus [32] = species: Mus musculus; assay: Average change in body weight from onset to termination of drug therapy in mice bearing the P388 Leukemia at 120 mg / kg
Mus musculus [33] = species: Mus musculus; assay: The average survival time (days) of mice bearing the L1210 Leukemia at 100 mg / kg (Mice that survived more than 50 days)
Mus musculus [34] = species: Mus musculus; assay: The average survival time(days) of mice bearing the P388 Leukemia at 120 mg / kg (Mice that survived more than 50 days)
Mus musculus [35] = species: Mus musculus; assay: Average survival time (treated / control) x100 was calculated in mice bearing the P388 Leukemia at 120 mg / kg (Mice that survived more than 50 days)
Mus musculus [36] = species: Mus musculus; assay: Average survival time (treated / control) x100 was calculated in mice bearing the L1210 Leukemia at 100 mg / kg (Mice that survived more than 50 days)
Mus musculus [37] = species: Mus musculus; assay: At the 50 day survivors of mice bearing the P388 Leukemia at 120 mg / kg
Mus musculus [38] = species: Mus musculus; assay: The average survival time (days) of mice bearing the L1210 Leukemia at 80 mg / kg (Mice that survived more than 50 days)
Mus musculus [39] = species: Mus musculus; assay: Average survival time (treated / control) x100 was calculated in mice bearing the L1210 Leukemia at 80 mg / kg (Mice that survived more than 50 days)

Structure (SMILES) | Average change in body weight (Mus musculus [1]) [%] | Average change in body weight (Mus musculus [2]) [%] | Average survival (Mus musculus [4]) [days] | T/C (Mus musculus [5]) [%] | Survivors (Mus musculus [6]) | T/C (Mus musculus [12]) [%] | Survivors (Mus musculus [14]) | Average survival (Mus musculus [15]) [days] | Average change in body weight (Mus musculus [16]) [%] | T/C (Mus musculus [17]) [%] | Survivors (Mus musculus [18]) | also measured
Cc1cc(C)c(S(=O)(=O)N/N=C/c2cccc[n+]2[O-])c(C)c1 | -1 | -9.3 | 17 | 180 | 40 | – | – | – | – | – | – | Average survival (Mus musculus [3]): 11.3 days; Survivors (Mus musculus [7]): 40; T/C (Mus musculus [8]): 126%
O=C(O)c1cc(S(=O)(=O)N/N=C/c2cccc[n+]2[O-])ccc1O | – | -9.8 | 13.8 | – | – | 147 | 0 | – | – | – | – | Average change in body weight (Mus musculus [9]): 0%; Average survival (Mus musculus [10]): 14 days; T/C (Mus musculus [11]): 156%; Survivors (Mus musculus [13]): 0
CN(C)c1ccc(S(=O)(=O)N/N=C/c2cccc[n+]2[O-])cc1 | – | -4.4 | 16.4 | – | – | 174 | 0 | 16.8 | -3.2 | 187 | 0 | –
Cc1ccc(S(=O)(=O)N/N=C/c2cccc[n+]2[O-])cc1C(=O)O | – | -5.9 | – | 99 | – | – | 40 | 11.8 | -5 | 131 | 0 | Average survival (Mus musculus [19]): 9.3 days
CC(=O)Nc1ccc(S(=O)(=O)N/N=C/c2cccc[n+]2[O-])cc1 | 0 | – | – | – | 0 | – | – | – | – | – | – | Average survival (Mus musculus [20]): 15.2 days; Average survival (Mus musculus [21]): 14.8 days; Average change in body weight (Mus musculus [22]): -4.4%; T/C (Mus musculus [23]): 157%; Survivors (Mus musculus [24]): 0; T/C (Mus musculus [25]): 169%
O=S(=O)(N/N=C/c1cccc[n+]1[O-])c1ccc(O)cc1 | – | -15.4 | 16 | – | – | 170 | 0 | 12.2 | -0.8 | 136 | 0 | –
O=C(O)c1ccc(S(=O)(=O)N/N=C/c2cccc[n+]2[O-])cc1 | – | -4.1 | 13.8 | – | – | 147 | 0 | – | – | – | – | Average change in body weight (Mus musculus [26]): 3.4%; Average survival (Mus musculus [27]): 10.8 days; T/C (Mus musculus [28]): 120%; Survivors (Mus musculus [29]): 0
COc1ccc(C(=O)O)cc1S(=O)(=O)N/N=C/c1cccc[n+]1[O-] | – | – | – | – | – | – | – | 11.6 | 8.1 | 129 | 0 | Average survival (Mus musculus [30]): 15 days; Average change in body weight (Mus musculus [22]): -3.1%; T/C (Mus musculus [31]): 160%; Survivors (Mus musculus [24]): 20
O=C(O)c1cccc(S(=O)(=O)N/N=C/c2cccc[n+]2[O-])c1 | -2.4 | – | – | – | 0 | – | – | – | – | – | – | Average survival (Mus musculus [20]): 12.4 days; Average survival (Mus musculus [21]): 13.8 days; Average change in body weight (Mus musculus [22]): -6.5%; T/C (Mus musculus [23]): 147%; Survivors (Mus musculus [24]): 0; T/C (Mus musculus [25]): 138%
COc1ccc(S(=O)(=O)N/N=C/c2cccc[n+]2[O-])cc1OC | – | – | – | – | – | – | – | – | -8.7 | – | 80 | Average change in body weight (Mus musculus [32]): -18.8%; Average survival (Mus musculus [33]): 19 days; Average survival (Mus musculus [34]): 11.5 days; T/C (Mus musculus [35]): 122%; T/C (Mus musculus [36]): 210%; Survivors (Mus musculus [37]): 60
O=C(O)Cc1ccc(S(=O)(=O)N/N=C/c2cccc[n+]2[O-])cc1 | 7.3 | -5.2 | 13.6 | – | 0 | 145 | 0 | – | – | – | – | Average survival (Mus musculus [20]): 10.4 days; T/C (Mus musculus [25]): 116%
COc1ccc(S(=O)(=O)N/N=C/c2cccc[n+]2[O-])c(OC)c1 | – | -10.3 | – | 226 | – | – | 20 | – | – | – | – | Average change in body weight (Mus musculus [9]): -2.5%; Average survival (Mus musculus [38]): 11.7 days; Average survival (Mus musculus [19]): 21.2 days; T/C (Mus musculus [39]): 130%; Survivors (Mus musculus [13]): 20
Cc1ccc(C(=O)O)cc1S(=O)(=O)N/N=C/c1cccc[n+]1[O-] | – | 0 | – | 180 | – | – | 20 | 12 | 4.1 | 133 | 0 | Average survival (Mus musculus [19]): 17 days
